The record followed here is patent US9611263B2, “Compounds that modulate intracellular calcium” (CALCIMEDICA, INC., priority 2013, dated 2017).

Bounds are passed on as bounds.

The target of one assay is T1, Orai1/STIM1 (Homo sapiens, UniProt Q96D31).
T1 construct: expressed in transfected cells
Kind of assay: Fluorescence-based assay of store-operated calcium entry in Orai1/STIM1 stable cells. It counts as cell-based. The settings on record: HEK-293 cells stably expressing human STIM1 and Orai1; 50% inhibition of Peak-Basal fluorescence signal; read-out: Orai1/STIM1 (IC50, μmol). As for the experimental part: A. Fluorescence-Based Assay of Store-Operated Calcium Entry in Orai1/STIM1 Stable Cells.
Cells stably expressing recombinant human STIM1 and Orai1 are generated by transfecting a human Orai1 expression plasmid (pcDNA3.1-Orai1-cmyc) into HEK-293 cells stably overexpressing human STIM1 (Roos et al. 2005 JCB 169(3): 435-445). Colonies of cells stably expressing both STIM1 and Orai1 proteins are selected and then subcloned by limiting dilution. Cells were cultured at 37° C./6% CO2 in complete medium with 10% FBS and appropriate selection markers.
The day prior to performing the assay Orai1/STIM1 stable cells are plated in 50 μL of complete medium at 90-95% confluence in a 384 well plate. Cells are grown at 37° C./6% CO2 overnight. On the day of the assay, 1.5 μM fluo-4-AM (Invitrogen) in complete medium is added to the cells, which are then incubated for 1 hour at RT. Cells are washed once in Ca^2+-free HBSS (Hank's buffered saline solution) and 35 μl of Ca^2+-free HBSS is added to each well. Test compounds are added to wells in a 10 μL Ca^2+-free HBSS solution, prepared at 4.5× the desired final concentration, and incubated for 30 minutes at RT. The initial baseline fluorescence signal is then measured with a FLIPR^384 (Molecular Devices) plate reader. Calcium entry is initiated by adding 5 μl of 10× CaCl2 (10 mM) in HBSS, and changes in cellular fluorescence are measured with the FLIPR^384 plate reader. In each well, the magnitude of the fluorescence signal as a result of calcium entry into the cell is determined by calculating the difference between the peak fluorescence signal measured after calcium addition and the initial baseline fluorescence signal (designated Peak-Basal). IC50 values are typically calculated as the concentration that inhibited 50% of the Peak-Basal signal.

For a further assay, the system named is RBL-2H3 cells. Briefly: Fluorescence-based assay of store-operated calcium entry in RBL-2H3 cells. It counts as cell-based, rat. As to conditions: Rattus norvegicus, RBL-2H3; thapsigargin; 50% inhibition of Upslope; read-out: RBL-2H3 (IC50, μmol). As for the experimental part:
B. Fluorescence-Based Assay of Store-Operated Calcium Entry in RBL-2H3 Cells.
RBL-2H3 cells are obtained from ATCC and maintained in complete medium with 10% FBS at 37° C./6% CO2.
The day prior to performing the assay, RBL-2H3 cells are plated in 50 μL of complete medium in a 384 well plate. Cells are grown at 37° C./6% CO2 overnight and grow to 50-60% confluence by the next day. On the assay day, 1.5 μM Fluo-4-AM dye (Invitrogen) in complete medium is added and incubated for 1 hour at RT. Cells are washed twice in Ca^2+-free HBSS buffer and 35 μL Ca^2+-free HBSS buffer is added to each well. 10 μL of a test compound prepared in a Ca^2+-free HBSS solution at 4.5× of the desired concentration is added to a well and incubated for 5 minutes at RT. 10 μL of thapsigargin prepared in a Ca^2+-free HBSS solution at 5.5× of the desired concentration (5.5 uM) is added to each well and incubated for an additional 25 minutes. The initial baseline fluorescence signal is measured with a FLIPR^384 (Molecular Devices) plate reader. 5 μL of 12× calcium in HBSS (12 mM) is added and changes in cellular fluorescence are measured with the FLIPR^384 plate reader. In each well, the change in the fluorescent signal as a function of time due to calcium entry into the cell is determined by calculating the difference between the fluorescent signal measured 7 seconds after calcium addition and the initial baseline fluorescence signal at time zero (t=0). This parameter is designated Upslope. The IC50 value is calculated as the concentration at which 50% of the Upslope is inhibited.

T1 sequence (Q96D31 whole entry): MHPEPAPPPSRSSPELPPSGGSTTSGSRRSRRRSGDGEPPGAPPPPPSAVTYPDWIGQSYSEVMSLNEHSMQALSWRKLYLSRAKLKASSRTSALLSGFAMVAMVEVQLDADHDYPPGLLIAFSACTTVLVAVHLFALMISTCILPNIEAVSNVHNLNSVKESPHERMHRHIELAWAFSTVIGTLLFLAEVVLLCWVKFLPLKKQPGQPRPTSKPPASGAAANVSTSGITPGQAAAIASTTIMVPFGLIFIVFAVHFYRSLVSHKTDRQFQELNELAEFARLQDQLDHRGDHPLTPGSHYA

Turning to `Cc1nn(-c2nccs2)cc1-c1ccc(NC(=O)c2c(F)cccc2F)cc1` [Example 1, 2,6-difluoro-N-(4-(3-methyl-1-(thiazol-2-yl)-1H-pyrazol-4-yl)phenyl)benzamide], the IC50 at Orai1/STIM1 and with RBL-2H3 cells was under 600 nM in each case.
Consider `Cc1nn(-c2nccs2)cc1-c1ccc(NC(=O)c2ccccc2F)cc1` [Example 2, 2-fluoro-N-(4-(3-methyl-1-(thiazol-2-yl)-1H-pyrazol-4-yl)phenyl)benzamide], for which the IC50 on Orai1/STIM1 and with RBL-2H3 cells was under 600 nM each time.
For the molecule `Cc1cccc(F)c1C(=O)Nc1ccc(-c2cn(-c3nccs3)nc2C)cc1` [Example 3, 2-fluoro-6-methyl-N-(4-(3-methyl-1-(thiazol-2-yl)-1H-pyrazol-4-yl)phenyl)benzamide], the IC50 on Orai1/STIM1 and with RBL-2H3 cells was under 600 nM throughout.
For the molecule `Cc1nn(-c2nccs2)cc1-c1ccc(NC(=O)c2c(F)ccc(F)c2F)cc1` [Example 4, 2,3,6-trifluoro-N-(4-(3-methyl-1-(thiazol-2-yl)-1H-pyrazol-4-yl)phenyl)benzamide], the IC50 at Orai1/STIM1 and in the assay with RBL-2H3 cells was under 600 nM in each case.
For `Cc1nn(-c2nccs2)cc1-c1ccc(NC(=O)c2ccccc2OC(F)F)cc1` [Example 5, 2-(difluoromethoxy)-N-(4-(3-methyl-1-(thiazol-2-yl)-1H-pyrazol-4-yl)phenyl)benzamide], the IC50 on Orai1/STIM1 and in the assay on RBL-2H3 cells was under 600 nM in each case.
As for `CCc1nn(-c2nccs2)cc1-c1ccc(NC(=O)c2c(F)cccc2F)cc1` [Example 6, N-(4-(3-ethyl-1-(thiazol-2-yl)-1H-pyrazol-4-yl)phenyl)-2,6-difluorobenzamide], the IC50 on Orai1/STIM1 and with RBL-2H3 cells was under 600 nM in each case.
As to `CCc1nn(-c2nccs2)cc1-c1ccc(NC(=O)c2ccccc2F)cc1` [Example 7, N-(4-(3-ethyl-1-(thiazol-2-yl)-1H-pyrazol-4-yl)phenyl)-2-fluorobenzamide], the IC50 at Orai1/STIM1 and with RBL-2H3 cells was under 600 nM each time.
For `CCc1nn(-c2nccs2)cc1-c1ccc(NC(=O)c2c(C)cccc2F)cc1` [Example 8, N-(4-(3-ethyl-1-(thiazol-2-yl)-1H-pyrazol-4-yl)phenyl)-2-fluoro-6-methylbenzamide], the results for the IC50 at Orai1/STIM1 and in the assay with RBL-2H3 cells were 600 to 1200 nM and under 600 nM, respectively.
`Cc1nn(-c2nccs2)cc1-c1ccc(NC(=O)c2c(F)cccc2F)cc1F` [Example 10, 2,6-difluoro-N-(3-fluoro-4-(3-methyl-1-(thiazol-2-yl)-1H-pyrazol-4-yl)phenyl)benzamide]: the IC50 on Orai1/STIM1 and with RBL-2H3 cells was under 600 nM each time.
For the molecule `Cc1nn(-c2nccs2)cc1-c1ccc(NC(=O)c2ccccc2F)cc1F` [Example 11, 2-fluoro-N-(3-fluoro-4-(3-methyl-1-(thiazol-2-yl)-1H-pyrazol-4-yl)phenyl)benzamide], the IC50 on Orai1/STIM1 and in the assay on RBL-2H3 cells was under 600 nM in each case.
Take `Cc1cccc(F)c1C(=O)Nc1ccc(-c2cn(-c3nccs3)nc2C)c(F)c1` [Example 12, 2-fluoro-N-(3-fluoro-4-(3-methyl-1-(thiazol-2-yl)-1H-pyrazol-4-yl)phenyl)-6-methylbenzamide]: the IC50 on Orai1/STIM1 was 600 to 1200 nM; in the assay on RBL-2H3 cells, under 600 nM.
For `Cc1nn(-c2nccs2)cc1-c1ccc(NC(=O)c2c(F)ccc(F)c2F)cc1F` [Example 13, 2,3,6-trifluoro-N-(3-fluoro-4-(3-methyl-1-(thiazol-2-yl)-1H-pyrazol-4-yl)phenyl)benzamide] the same measures were under 600 nM and under 600 nM.
The matching figures for `Cc1nn(-c2nccs2)cc1-c1ccc(NC(=O)c2c(F)cc(F)cc2F)cc1F` [Example 14, 2,4,6-trifluoro-N-(3-fluoro-4-(3-methyl-1-(thiazol-2-yl)-1H-pyrazol-4-yl)phenyl)benzamide]: under 600 nM and under 600 nM.
The matching figures for `Cc1nn(-c2nccs2)cc1-c1ccc(NC(=O)c2ccc(F)c(F)c2F)cc1F` [Example 15, 2,3,4-trifluoro-N-(3-fluoro-4-(3-methyl-1-(thiazol-2-yl)-1H-pyrazol-4-yl)phenyl)benzamide]: under 600 nM and under 600 nM.
For the molecule `Cc1nn(-c2nccs2)cc1-c1ccc(NC(=O)c2cc(F)nc(F)c2)cc1F` [Example 16, 2,6-difluoro-N-(3-fluoro-4-(3-methyl-1-(thiazol-2-yl)-1H-pyrazol-4-yl)phenyl)isonicotinamide], the IC50 on Orai1/STIM1 and in the assay on RBL-2H3 cells was under 600 nM throughout.
In the case of `Cc1nn(-c2nccs2)cc1-c1ccc(NC(=O)c2ccccc2OC(F)F)cc1F` [Example 17, 2-(difluoromethoxy)-N-(3-fluoro-4-(3-methyl-1-(thiazol-2-yl)-1H-pyrazol-4-yl)phenyl)benzamide], the IC50 is 600 to 1200 nM on Orai1/STIM1 and under 600 nM in the assay on RBL-2H3 cells.
For the molecule `Cc1nn(-c2nccs2)cc1-c1ccc(NC(=O)c2c(F)cccc2F)nc1` [Example 18, 2,6-difluoro-N-(5-(3-methyl-1-(thiazol-2-yl)-1H-pyrazol-4-yl)pyridin-2-yl)benzamide], the IC50 on Orai1/STIM1 and in the assay on RBL-2H3 cells was under 600 nM throughout.
`Cc1cccc(F)c1C(=O)Nc1ccc(-c2cn(-c3nccs3)nc2C)cn1` [Example 19, 2-fluoro-6-methyl-N-(5-(3-methyl-1-(thiazol-2-yl)-1H-pyrazol-4-yl)pyridin-2-yl)benzamide]: the IC50 at Orai1/STIM1 and in the assay on RBL-2H3 cells was under 600 nM throughout.
Regarding `Cc1nn(-c2nccs2)cc1-c1ccc(NC(=O)c2c(F)ccc(F)c2F)nc1` [Example 20, 2,3,6-trifluoro-N-(5-(3-methyl-1-(thiazol-2-yl)-1H-pyrazol-4-yl)pyridin-2-yl)benzamide], the IC50 on Orai1/STIM1 and in the assay on RBL-2H3 cells was under 600 nM throughout.
For the molecule `Cc1nn(-c2nccs2)cc1-c1ccc(NC(=O)c2c(F)cc(F)cc2F)nc1` [Example 21, 2,4,6-trifluoro-N-(5-(3-methyl-1-(thiazol-2-yl)-1H-pyrazol-4-yl)pyridin-2-yl)benzamide], the IC50 on Orai1/STIM1 and in the assay with RBL-2H3 cells was under 600 nM throughout.
Take `Cc1nn(-c2nccs2)cc1-c1ccc(NC(=O)c2ccc(F)c(F)c2F)nc1` [Example 22, 2,3,4-trifluoro-N-(5-(3-methyl-1-(thiazol-2-yl)-1H-pyrazol-4-yl)pyridin-2-yl)benzamide]: at Orai1/STIM1, the IC50 fell in the range of 600 to 1200 nM.
Take `Cc1nn(-c2nccs2)cc1-c1ccc(NC(=O)c2cc(F)nc(F)c2)nc1` [Example 23, 2,6-difluoro-N-(5-(3-methyl-1-(thiazol-2-yl)-1H-pyrazol-4-yl)pyridin-2-yl)isonicotinamide]: the IC50 on Orai1/STIM1 and with RBL-2H3 cells was under 600 nM each time.
For `Cc1nn(-c2nccs2)cc1-c1cnc(NC(=O)c2c(F)cccc2F)cn1` [Example 24, 2,6-difluoro-N-(5-(3-methyl-1-(thiazol-2-yl)-1H-pyrazol-4-yl)pyrazin-2-yl)benzamide], the IC50 on Orai1/STIM1 and in the assay on RBL-2H3 cells was under 600 nM in each case.
In the case of `Cc1nn(-c2nccs2)cc1-c1cnc(NC(=O)c2ccccc2F)cn1` [Example 25, 2-fluoro-N-(5-(3-methyl-1-(thiazol-2-yl)-1H-pyrazol-4-yl)pyrazin-2-yl)benzamide], the IC50 on Orai1/STIM1 and in the assay with RBL-2H3 cells was under 600 nM throughout.
Consider `Cc1nn(-c2nccs2)cc1-c1cnc(NC(=O)c2ccc(F)c(F)c2F)cn1` [Example 29, 2,3,4-trifluoro-N-(5-(3-methyl-1-(thiazol-2-yl)-1H-pyrazol-4-yl)pyrazin-2-yl)benzamide], for which, on Orai1/STIM1, the IC50 was over 1200 nM.
